Active and inactive are the calls of the source. The calls are words filed in the database; no cut-off is given here.
Key:
[1] = test system: Helicobacter pylori; assay: (§1) Protection against Helicobacter pylori ATCC 43504 infected (MOI 400:1) in human GES1 cell injury model assessed as early apoptotic cells at 50 uM pre-treated for 2 hrs followed by bacterial infection measured after 6 hrs by Annexin/V-FITC staining based flow cytometry analysis (reference value: 42.41 %); assay type: functional; details: time 8 hrs
[2] = test system: Helicobacter pylori; assay: (§2) Protection against Helicobacter pylori ATCC 43504 infected (MOI 400:1) in human GES1 cell injury model assessed as necrotic cells at 25 uM pre-treated for 2 hrs followed by bacterial infection measured after 6 hrs by Annexin/V-FITC staining based flow cytometry analysis (reference value: 6.36%); assay type: functional; details: time 8 hrs
[3] = test system: Helicobacter pylori; assay: as §1, with “100:1)” for “400:1)”, “24.66” for “42.41”; assay type: functional; details: time 8 hrs
[4] = test system: Helicobacter pylori; assay: Protection against Helicobacter pylori ATCC 43504 infected (MOI 50:1) in human GES1 cell injury model assessed as viable cells at 25 uM pre-treated for 2 hrs measured after 6 hrs by Annexin/V-FITC staining based flow cytometry analysis (reference value: 81.14%); assay type: functional; details: time 8 hrs
[5] = test system: Helicobacter pylori; assay: Protection against Helicobacter pylori ATCC 43504 infected (MOI 25:1) in human GES1 cell injury model assessed as viable cells at 50 uM pre-treated for 2 hrs followed by bacterial infection measured after 6 hrs by Annexin/V-FITC staining based flow cytometry analysis (reference value: 89.14%); assay type: functional; details: time 8 hrs
[6] = test system: Helicobacter pylori; assay: Protection against Helicobacter pylori ATCC 43504 infected (MOI 300:1) in human GES1 cell injury model assessed as viable cells at 50 uM pre-treated for 2 hrs followed by bacterial infection measured after 6 hrs by Annexin/V-FITC staining based flow cytometry analysis (reference value: 47.43%); assay type: functional; details: time 8 hrs
[7] = Acute toxicity in BALB/c mouse assessed as pathological abnormality in kidney at 1 g/Kg, po single dose administered for 7 days by HE staining based analysis; assay type: organism-based; details: in vivo, 1000 mg/kg, 168 h, time 7 day
[8] = test system: Helicobacter pylori; assay: as §2, with “200:1)” for “400:1)”, “late apoptotic” for “necrotic”, “6.28%)” for “6.36%)”; assay type: functional; details: time 8 hrs
[9] = test system: Helicobacter pylori; assay: as §1, with “25:1)” for “400:1)”, “9.89%)” for “42.41 %)”; assay type: functional; details: time 8 hrs
[10] = test system: Helicobacter pylori; assay: Protection against Helicobacter pylori ATCC 43504 infected (MOI 300:1) in human GES1 cell injury model assessed as necrotic cells at 25 uM pre-treated for 2 hrs followed by bacterial infection measured after 6 hrs by Annexin/V-FITC staining based flow cytometry analysis (reference value: 6.05%); assay type: functional; details: time 8 hrs
[11] = test system: Helicobacter pylori; assay: as §1, with “50:1)” for “400:1)”, “13.16” for “42.41”; assay type: functional; details: time 8 hrs
[12] = test system: Helicobacter pylori; assay: as §1, with “200:1)” for “400:1)”, “31.93” for “42.41”; assay type: functional; details: time 8 hrs
[13] = test system: Helicobacter pylori; assay: Protection against Helicobacter pylori ATCC 43504 infected (MOI 200:1) in human GES1 cell injury model assessed as necrotic cells at 25 uM pre-treated for 2 hrs followed by bacterial infection measured after 6 hrs by Annexin/V-FITC staining based flow cytometry analysis (reference value: 3.92%); assay type: functional; details: time 8 hrs
[14] = Stability of the compound in simulated gastric fluid; assay type: physicochemical; details: simulated gi fluid
[15] = test system: Helicobacter pylori; assay: (§3) Protection against Helicobacter pylori ATCC 43504 infected (MOI 50:1) in human GES1 cell injury model assessed as late apoptotic cells at 50 uM pre-treated for 2 hrs followed by bacterial infection measured after 6 hrs by Annexin/V-FITC staining based flow cytometry analysis (reference value: 2.85%); assay type: functional; details: time 8 hrs
[16] = test system: Helicobacter pylori; assay: In vivo protection against Helicobacter pylori ATCC 43504 infected in BALB/c mouse gastric mucosa model assessed as effect on hyperplasia at low dose administered once a day for 2 weeks by HE staining based analysis; assay type: functional, organism-based
[17] = Acute toxicity in BALB/c mouse assessed as pathological abnormality in liver at 1 g/Kg, po single dose administered for 7 days by HE staining based analysis; assay type: organism-based; details: in vivo, 1000 mg/kg, 168 h, time 7 day
[18] = test system: Helicobacter pylori; assay: as §3, with “(MOI 100:1)” for “(MOI 50:1)”, “at 25” for “at 50”, “value: 4.16%)” for “value: 2.85%)”; assay type: functional; details: time 8 hrs
[19] = test system: Helicobacter pylori; assay: as §1, with “reduction in cell apoptosis rate” for “early apoptotic cells”, “56.03%)” for “42.41 %)”; assay type: functional; set-up: scale not given: the % may be the effect or the level left; details: time 8 hrs
[20] = test system: Helicobacter pylori; assay: In vivo protection against Helicobacter pylori ATCC 43504 infected in BALB/c mouse gastric mucosa model assessed as effect on infiltration at high dose administered once a day for 2 weeks by HE staining based analysis; assay type: functional, organism-based
[21] = test system: GES1; assay: Cytotoxicity against human GES1 cells at upto 75 uM by MTT assay; assay type: toxicity, cell-based; details: ges1, 75 µM
[22] = test system: Helicobacter pylori; assay: as §3, with “100:1)” for “50:1)”, “4.16%)” for “2.85%)”; assay type: functional; details: time 8 hrs
[23] = test system: Helicobacter pylori; assay: Protection against Helicobacter pylori ATCC 43504 infected (MOI 400:1) in human GES1 cell injury model assessed as viable cells at 50 uM pre-treated for 2 hrs followed by bacterial infection measured after 6 hrs by Annexin/V-FITC staining based flow cytometry analysis (reference value: 37.61%); assay type: functional; details: time 8 hrs
[24] = test system: Helicobacter pylori; assay: Protection against Helicobacter pylori ATCC 43504 infected (MOI 25:1) in human GES1 cell injury model assessed as necrotic cells at 50 uM pre-treated for 2 hrs measured after 6 hrs by Annexin/V-FITC staining based flow cytometry analysis (reference value: 0.66%); assay type: functional; details: time 8 hrs
[25] = test system: Helicobacter pylori; assay: as §1, with “(MOI 300:1)” for “(MOI 400:1)”, “at 25” for “at 50”, “value: 34.57” for “value: 42.41”; assay type: functional; details: time 8 hrs
[26] = test system: GES1; assay: Induction of ROS generation in human GES1 cells infected (25 to 400:1 MOI) with Helicobacter pylori ATCC 43504 assessed as decrease in fluorescence intensity at 25 to 50 uM by DCFH-DA based Immunofluorescence analysis; assay type: functional, cell-based; details: dose 25-50 µM
[27] = Acute toxicity in BALB/c mouse assessed as pathological abnormality in heart at 1 g/Kg, po single dose administered for 7 days by HE staining based analysis; assay type: organism-based; details: in vivo, 1000 mg/kg, 168 h, time 7 day
[28] = test system: Helicobacter pylori; assay: In vivo protection against Helicobacter pylori ATCC 43504 infected in BALB/c mouse gastric mucosa model assessed as effect on inflammatory cell infiltration at low dose administered once a day for 2 weeks by HE staining based analysis; assay type: functional, organism-based
[29] = test system: Helicobacter pylori; assay: Protection against Helicobacter pylori ATCC 43504 infected (MOI 50:1) in human GES1 cell injury model assessed as late apoptotic cells at 25 uM pre-treated for 2 hrs measured after 6 hrs by Annexin/V-FITC staining based flow cytometry analysis (reference value: 2.85%); assay type: functional; details: time 8 hrs
[30] = test system: Helicobacter pylori; assay: as §1, with “(MOI 25:1)” for “(MOI 400:1)”, “at 25” for “at 50”, “value: 9.89%)” for “value: 42.41 %)”; assay type: functional; details: time 8 hrs

For O=C(Oc1n[se]c2ccccc12)c1cccc(F)c1, the Activity [1] was 7.61%, the Activity [2] was 0.32% and the Activity [3] was 2.79%. The Activity [4] was 95.32%, the Activity [5] was 99.06% and the Activity [6] was 92.33%. For the same compound, the Activity [7] was “Non-toxic”, the Activity [8] was 0.02% and the Activity [9] was 0.51%. For the same compound, the Activity [10] was 0.31%, the Activity [11] was 2.91% and the Activity [12] was 4.38%. For the same compound, the Activity [13] was 0.12%, the Stability [14] was “Stable” and the Activity [15] was 0.02%. For the same compound, the Activity [16] was “inactive”, the Activity [17] was “Non-toxic” and the Activity [18] was 0.17%. The Activity [19] was 47.7%, the Activity [20] was “Active” and the Activity [21] was “Non-toxic”. It also gave an Activity [22] of 0.23%, an Activity [23] of 89.4% and an Activity [24] of 0.43%. For the same compound, the Activity [25] was 15.81%, the Activity [26] was “Active” and the Activity [27] was “Non-toxic”. For the same compound, the Activity [28] was “Active”, the Activity [29] was 0.05% and the Activity [30] was 1.51%.
